Columns and labels:
[1] = test system: cavernosalen glatten Muskulatur; test: Organ bath contraction study with corpus cavernosum strips (phenylephrine-induced contraction); set-up: species or system Kaninchen; conditions: for Relaxation der kavernösen, glatten Muskulatur: Kaninchen, phenylephrine-precontracted tissue
Experimental: Männliche New Zealand White-Kaninchen (Gewicht: 2,5-3,0 kg) wurden mit CO2-Gas eingeschläfert. Das cavernöse Gewebe wurde beim Sezieren in eine HEPES-gepufferte Lösung (20°C, pH 7,4) eingebracht. Die oben liegende Skelettmuskulatur wurde vorsichtig entfernt, um nicht die darunterliegende Tunica albuginea zu beschädigen. Im proximalen Ende der Tunica wurde ein Schnitt ausgeführt, während sie distal erweitert wurde. Dann wurde das Corpus Cavernosum bilateral aus der Tunica herausgelöst.
Für menschliches Gewebe wurde das Verfahren zum Ernten von Gewebe vom Institutional Review Board for Human Studies am Boston University Medical Center genehmigt. Cavernöses Gewebe wurde von Patienten erhalten, die sich der Implantation einer Penisprothese zur Behandlung einer erektilen Dysfunktion unterzogen. Im Operationssaal wurden Biopsien der Corpora cavernosa sofort in eisgekühlte (4°C) physiologische Salzlösung gelegt und zum Labor transportiert. Gewebestreifen mit einer Größe von etwa 3 mm x 3mm x 10 mm wurden zugeschnitten und für Organbadstudien gemäß einem ähnlichen Verfahren wie dem nachfolgend beschriebenen präpariert.
Längsschnitte des Corpus cavernosum wurden in Organbäder gelegt, die folgendes (in mM) enthielten: 118 NaCI, 4,7 KCI, 1,2 KH2PO4, MgSO4, 24,9 NaCO3, 5,5 Glucose, 2,0 Na-Pyruvat und 2,0 CaCl2. Die Streifen cavernöser, glatter Muskulatur wurden mit 2 Gramm gestreckt und mit einem Gemisch von 95% O2 und 5% CO2 während zwei Stunden äquilibriert, bevor mit dem Versuchsverfahren begonnen wurde. Dann wurden die Gewebe an Kraftwandler (Grass FT03) angeschlossen. Die Spannungsmessungen wurden mit einem MP100-System und der AcqKnowledge-Software (Biopac) digital aufgezeichnet.
Die Gewebe wurden mit Indomethacin (10 µM) vorbehandelt, um Cyclooxygenaseeffekte zu beseitigen. Durch Zugabe von Phenylephrin (10 µM) zu den Organkammern wurden Kontraktionen induziert. Nachdem die Phenylephrin-induzierte Kontraktion einen dauerhaften Zustand erreicht hatte, wurde das tricyclische Pteridinon (Pt) (Fig. 1a und 1b) oder der Stickstoffoxid-Donor S-Nitroso-N-acetylpenicillamin (SNAP) zugegeben (Fig. 2).

[2] = Pharmacokinetic experiments, plasma levels after oral administration; type: in vivo; conditions: species not given
PDE I = test: PDE subtype profile: inhibition of isolated PDE isozyme; type: biochemical; conditions: PDE I aus Rinder-Aorta; 0,2 µM [3H] cyclisches GMP
Experimental: (§1) Die verschiedenen Formen cyclischer Nukleotidphosphodiesterasen (PDE) wurden mit üblichen Methoden isoliert. Die PDE-lsozyme wurden aus den folgenden Quellen isoliert: PDE I und PDE V aus Rinder-Aorta, PDE II aus dem linken Ventrikel von Ratten, PDE IV aus Rattenniere und PDE III aus menschlichen Plättchen.
(§2) Die PDE-Aktivität wurde in einem Reaktionsmedium gemessen, das 40 mM Tris-HCI (pH 8,0), 5 mM MgCl2, 1 mM Dithiothreitol und 0,2 µM [^3H] cyclisches GMP enthielt. Das tricyclische Pteridinon wurde in DMSO (2,5%) gelöst. Bei dieser DMSO-Konzentration wurde die Enzymaktivität zu etwa 10% inhibiert. Die IC50-Werte für das tricyclische Pteridinon wurden anhand von Dosis-Wirkungs-Kurven bestimmt, bei denen die Konzentration im Bereich von 1 nM bis 10 µM (ganze log-Inkremente) lag. Für jedes untersuchte PDE-Isozym wurden mindestens zwei IC50-Bestimmungen an verschiedenen Tagen durchgeführt.

PDE III = target: T1, PDE III (Homo sapiens, UniProt Q14432); test: as above; type: biochemical; conditions: PDE III aus menschlichen Plättchen
T1 construct: Die PDE-lsozyme wurden aus den folgenden Quellen isoliert; from tissue; host or cells: human platelets
Experimental: as §1, §2

PDE V = target: T2, PDE V (Bos taurus, UniProt Q28156); test: as above; type: biochemical; conditions: PDE V aus Rinder-Aorta
T2 construct: Die PDE-lsozyme wurden aus den folgenden Quellen isoliert; from tissue; host or cells: bovine aorta
Experimental: as §1, §2

[3] = test system: Macaca fascicularis-Affen; test: Monkey model of male erectile dysfunction (intracavernous pressure, blood pressure); type: in vivo
PDE VI = test: PDE subtype profile: inhibition of isolated PDE isozyme; type: biochemical; conditions: source of PDE VI not given
Experimental: as §2

[4] = test system: Macaca fascicularis-Affen; test: Monkey model of male erectile dysfunction (intracavernous pressure, blood pressure); type: in vivo; conditions: for Maximaler Druck / Mittlerer Druckanstieg: intracavernous bolus 0,5 ml, given after nitroprusside response returned to baseline
Experimental: Das tricyclische Pteridinon wurde Macaca fascicularis-Affen als intracavernöse Bolusinjektion (0,5 ml, mit 0,5 ml Kochsalzlösung-Flush) verabreicht. Die Auswirkungen auf den intracavernösen Druck wurden mitlaufend gemessen und mit denen des Stickstoffoxid-Donors Nitroprussid (SNP oder NP) verglichen. Stickstoffoxid induziert eine Erektion, indem es als Guanylatcyclase-Agonist wirkt.
Die abschließende Reihe der in vivo-Versuche an Affen untersuchte die Effekte des tricyclischen Pteridinon bei intravenöser Verabreichung (1 und 3 mg/kg) 15 Minuten vor der intracavernösen Injektion von Nitroprussid (10^-5 M). Diese Vorgehensweise wurde gewählt, um zu bestimmen, ob die "systemische Verabreichung" von tricyclischem Pteridinon die Nitroprussid-induzierte, erektile Reaktion wirksam verstärkt.

Katzen = test: Cat model of male erectile dysfunction (intracavernous pressure, systemic blood pressure); type: in vivo
Experimental: Geschlechtsreife männliche Katzen (Körpergewicht 2,9-4,6 kg) wurden mit α-Chloralose (60 mg/kg i.m.) narkotisiert. Dann wurden Hartmansche Lösung und eine Dextroselösung bei […] über die antekubitale Vene infundiert. Die Beatmung wurde über eine an einen Tierventilator (Harvard Apparatus Ltd., Boston MA) angeschlossene Tracheotomie sichergestellt. Pancuroniumbromid (0,3 ml/kg) wurde als Muskelrelaxans infundiert. Nach Bedarf wurden zusätzliche Dosen von α-Chlorase und Pancuroniumbromid gegeben, um ein gleichbleibendes Anästhesie-Niveau beizubehalten.
In der inneren Carotid-Arterie wurde ein zentraler Katheter gelegt, um eine Arterienblut-Gasanalyse (ABGA) durchzuführen und den systemischen Blutdruck in der Arterie aufzuzeichnen. Eine 23 G-Nadel wurde in das Corpus cavernosum eingeführt, um die Veränderungen des intracavernösen Drucks (ICP) zu messen. Sowohl der systemische, arterielle Blutdruck als auch der ICP wurden mittels eines Druckwandlers (Gilson P23XL-1, physiologischer Druckwandler, Ohmeda, Kanada), der an einen Polygraphen (Grass Model 7D, Quincy, MA, USA) angeschlossen war, gemessen. Zur lokalen Injektion von Versuchsverbindungen wurde ein Zweig der inneren Pudendalarterie auf einer Seite mit einem länglichen Polyethylenschlauch (PE-10-Schlauch, Original-Innendurchmesser 0,25 mm, Außendurchmesser 0,76 mm) retrograd mikrokanüliert. Dann wurden zur Verabreichung der Wirkstoffe (jeweils 0,1 ml) in den Penis die übrigen Zweige, bis auf die Penisarterie, ligiert. Mit geeigneten Ventilator-Einstellungen (z.B. Tidalvolumen 10 ml/kg; Atmungsrate 15-20/Min.) wurde eine Normoxie (pH > 7,25, PO2 > 60 mmHg, PCO2 < 40 mmHg) erzeugt und mit ABGA und einem mit der ausgeatmeten Luft verbundenen Capnometer (Modell 2200, Traverse Medical Monitors, USA) überprüft. Um die Volumeneffekte von Lösungsmitteln zu beurteilen, wurden destilliertes Wasser und normale Kochsalzlösung intraarteriell infundiert. Intraarterielles Wasser und Kochsalzlösung hatten selbst bei einem Bolus keinen Effekt auf den intracavernösen Druck (ICP).
Die Lösungen des tricyclischen Pteridinon wurden unter Verwendung einer 1%igen 6N HCI- und einer 5%igen DMSO-Lösung hergestellt. Papaverin (50 mg) + Phentolamin (5 mg) (Bimix) wurde in 5 ml mit 5% DMSO/Rest Kochsalzlösung hergestellt. Jedes Arzneimittel wurde als Bolus von 0,1 ml und 0,05 ml heparinisierter Kochsalzlösung zum Spülen infundiert.
Der Grund-ICP, ΔICP (d.h. die reine Veränderung des Grund-ICP) und Veränderungen des systemischen Blutdrucks wurden nach der intraarteriellen Injektion aufgezeichnet. Alle Daten wurden mittels eines Student's t-Test beurteilt, wobei p<0,05 als signifikant galt. Die Daten priapischer Episoden wurden bei den Berechnungen ausgeschlossen.

PDE IV = test: PDE subtype profile: inhibition of isolated PDE isozyme; type: biochemical, Ratten; conditions: PDE IV aus Rattenniere
Experimental: as §1, §2

[5] = i.v. bolus injection 0,5 mg/Tier

T1 sequence (Q14432 whole entry): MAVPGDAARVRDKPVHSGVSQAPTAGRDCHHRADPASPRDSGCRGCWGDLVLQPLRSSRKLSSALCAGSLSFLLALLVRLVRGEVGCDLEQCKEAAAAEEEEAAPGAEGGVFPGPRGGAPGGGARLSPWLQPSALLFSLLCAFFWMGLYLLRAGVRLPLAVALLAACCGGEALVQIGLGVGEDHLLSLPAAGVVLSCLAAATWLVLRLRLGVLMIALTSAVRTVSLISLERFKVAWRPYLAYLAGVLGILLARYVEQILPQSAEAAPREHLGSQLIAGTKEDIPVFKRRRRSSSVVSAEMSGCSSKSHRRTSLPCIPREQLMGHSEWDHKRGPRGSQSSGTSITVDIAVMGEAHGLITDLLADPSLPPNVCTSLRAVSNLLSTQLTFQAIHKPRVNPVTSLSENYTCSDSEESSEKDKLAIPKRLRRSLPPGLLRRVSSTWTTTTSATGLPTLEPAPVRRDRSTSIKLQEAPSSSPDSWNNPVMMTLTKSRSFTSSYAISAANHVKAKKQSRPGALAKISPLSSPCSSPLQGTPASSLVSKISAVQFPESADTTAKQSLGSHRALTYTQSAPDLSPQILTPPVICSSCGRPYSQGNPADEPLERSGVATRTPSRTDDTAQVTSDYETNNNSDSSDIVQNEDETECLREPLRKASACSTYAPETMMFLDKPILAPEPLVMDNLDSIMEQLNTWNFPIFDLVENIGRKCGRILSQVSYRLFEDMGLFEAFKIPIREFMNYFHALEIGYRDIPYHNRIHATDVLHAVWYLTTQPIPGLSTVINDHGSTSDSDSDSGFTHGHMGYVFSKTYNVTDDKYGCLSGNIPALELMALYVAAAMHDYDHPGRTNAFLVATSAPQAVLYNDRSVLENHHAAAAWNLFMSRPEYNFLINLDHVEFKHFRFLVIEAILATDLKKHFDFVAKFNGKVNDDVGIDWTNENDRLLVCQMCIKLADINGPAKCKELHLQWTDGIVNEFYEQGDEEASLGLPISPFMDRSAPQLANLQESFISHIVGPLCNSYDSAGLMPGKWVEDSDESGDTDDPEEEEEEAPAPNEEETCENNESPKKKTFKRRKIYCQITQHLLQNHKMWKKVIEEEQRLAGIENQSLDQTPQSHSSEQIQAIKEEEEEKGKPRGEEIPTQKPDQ

CC(=O)N[C@H](C(=O)O)C(C)(C)SN=O [SNAP, S-Nitroso-N-acetylpenicillamin, reference compound]
Relaxation der kavernösen, glatten Muskulatur ([1]; Fig. 2): unmittelbare Relaxation

CCc1nc(C)cn1-c1nc(C(C)C)c2[nH]c(=O)c3c(C)nc(CC)n3c2n1 [tricyclisches Pteridinon, 9-Ethyl-2-(2-ethyl-4-methyl-1H-imidazol-1-yl)-7-methyl-4-(2-propyl)imidazo[5,1-h]pteridin-6(5H)on]
Zeit bis zu signifikanten Plasmamengen nach oraler Verabreichung [2]: ≤ 30 Minuten | IC50 (PDE I): 5.8 nM | IC50 (PDE III): > 10000 nM | IC50 (PDE V): 35 nM | Dauer des Nitroprussid-induzierten Anstiegs des cavernösen Drucks ([3]; 1 mg/kg given simultaneously with nitroprusside): verdoppelte | Dauer des Nitroprussid-induzierten Anstiegs des cavernösen Drucks ([3]; 3 mg/kg given simultaneously with nitroprusside): nahezu verdreifachten | IC50 (PDE VI): 56 nM | Anstieg des cavernösen Drucks ([4]; Affen, given before administration of nitroprusside): keinen anhaltenden Anstieg | intracavernöser Druck nach systemischer Verabreichung ([4]; Affen, i.v. 1 and 3 mg/kg, Fig. 5): wirksam erhöht | Blutdrucksenkung ([4]; Affen, i.v. administration, 1 and 3 mg/kg): 20-40 mmHg | Maximaler Druck ([4]; Affen, 10^-4 Molar): 165 (1) cm H2O | Mittlerer Druckanstieg ([4]; Affen, 10^-4 Molar): 62 (1) Δ cm H2O | Maximaler Druck ([4]; Affen, 10^-5 Molar): 103 (3) cm H2O | Mittlerer Druckanstieg ([4]; Affen, 10^-5 Molar): 51 (3) Δ cm H2O | Maximaler Druck ([4]; Affen, 10^-6 Molar): 95 (2) cm H2O | Mittlerer Druckanstieg ([4]; Affen, 10^-6 Molar): 41 (2) Δ cm H2O | Adverse finding after pretreatment ([4]; one monkey, pretreatment 3 mg/kg followed by nitroprusside 10^-5 M i.c.): Priapismus | Relaxation der kavernösen, glatten Muskulatur ([1]; Fig. 2): unmittelbare Relaxation | IC50 ([1]; Phenylephrin 10 µM, Indomethacin 10^-5 M, Fig. 1 (Kaninchen, and tissue of impotent patients), read-out: IC50-Wert für die Inhibierung der Phenylephrin-induzierten Kontraktion): ~1000 nM | Stärke im Vergleich zu SNAP ([1]; in vitro model, Fig. 2): stärker | Erektionen steif (visuelle Bestimmung) (Katzen; 0,1 mg/Tier): nicht als steif | Erektionen steif (Katzen; higher doses (Fig. 3: 0,3 and 0,5 mg/Tier)): steifen Erektion | Dauer der vorübergehenden Spitzenabfälle des systemischen Arterienblutdrucks (Katzen; [5]): ≤ 5 Minuten | Spitzenabfälle des systemischen Arterienblutdrucks (Katzen; [5]): 15,8 mmHg | Anstieg des ICP (Katzen; local intra-arterial administration, 0,1 mg/Tier, p<0,01): 5,5 mmHg | Dosis, die den ICP erhöht (Katzen; local intra-arterial injection, 0,1 ml bolus, initial dose-finding study): ≥ 0,0038 mg | ICP, Dosisabhängigkeit (Katzen; local intra-arterial injection, Fig. 3): erhöhte in dosisabhängiger Weise signifikant den ICP | IC50 (PDE IV): 74 nM
